# Format: in vivo
# Conditions: both treatment groups together
# Method: Key exclusion criteria related to significant baseline pulmonary and cardiac disease, including uncontrolled hypertension (defined as an average systolic blood pressure >159 mmHg or diastolic >99 mmHg despite optimal treatment). Analysis of LVEF changes over time was conducted. Long-term corticosteroid treatment equivalent to a dexamethasone dose of 4.0 mg/day or prednisone at a dose of >20 mg/day was not permitted while receiving study treatment. Corticosteroids administered short-term (up to 2 weeks) were permitted, provided the cumulative dose was less than a 40 mg per week dexamethasone equivalent.
# Randomization was performed using an interactive voice or web response system. […]
# Statistical analysis: Efficacy evaluations were based on the intention-to-treat population. […] For primary and key secondary endpoints, response and disease progression were determined by a blinded Independent Review Committee. Additionally, they were determined locally by investigators in an unblinded manner and centrally by the sponsor using a validated computer algorithm, which served as sensitivity analysis of PFS.
# Descriptive statistics identified the extent of missing data. […] For patients who died on study, the death date was recorded on the end of study CRF page at the end of the study date. […]
smiles,measurement,value
CC(C)C[C@H](NC(=O)[C@H](CCc1ccccc1)NC(=O)CN1CCOCC1)C(=O)N[C@@H](Cc1ccccc1)C(=O)N[C@@H](CC(C)C)C(=O)[C@@]1(C)CO1 [carfilzomib],"patients who discontinued carfilzomib due to AEs, overall",21.3%

# — patent publication US12636340B2, “Methods of treating multiple myeloma” (ONYX PHARMACEUTICALS, INC., priority 2020, dated 2026)
